Experiment [1] relates to plasma hepatocyte growth factor (HGF). Put plainly: Plasma HGF (ELISA) in ALS patients after s.c. LMW-DS 1 mg/kg weekly (Example 2). It counts as in vivo, human. The following applies: 1 mg/kg s.c. Here is the method: This was a single-center, open single-arm study where the safety, tolerability and efficacy of subcutaneous (s.c.) administered LMW-DS was evaluated in patients with ALS. There were 10 planned visits to the clinic: 1 screening visit divided in 2 parts (Visit 1a and Visit 1b), 5 investigational medicinal product (IMP) administration visits (Visit 2 to Visit 6) and 3 follow-up visits (Visit 7 to Visit 9). Each individual patient’s study participation was planned to be approximately 4 months, including the screening and follow-up visits.
The active pharmaceutical ingredient of the IMP was a low molecular weight dextran sulfate (LMW-DS), (ILB®, Tikomed AB, Viken, Sweden, WO 2016/076780). The drug was used as a solution for s.c. injection and consisted of 20 mg/mL LMW-DS and 9 mg/mL NaCl. Each glass vial contained 10 mL. The dose administered depended on the patient’s body weight at Visit 2, prior to the first LMW-DS administration. LMW-DS was injected s.c. on alternating sides of the abdomen, thigh or the buttock (in that order of priority). Five injections of 1 mg/kg, with 1 week dosing interval, were administered. Changes in immunoreactive HGF were measured by commercial ELISA (R&D HGF ELISA) from blood samples taken at each visit.

In experiment [2] the test system is HUVEC + (IL-4 and histamine). As to the kind of experiment: BioMAP 4H system. Format: cell-based, human. To be noted: annotated relative to vehicle controls. The source says: (§1) Cell types and stimuli used in each system are as follows: 3C system [HUVEC + (IL-1β, TNFα and IFNy)], 4H system [HUVEC + (IL-4 and histamine)], LPS system [PBMC and HUVEC + LPS (TLR4 ligand)], SAg system [PBMC and HUVEC + TCR ligands], BT system [CD19+ B cells and PBMC + (α-IgM and TCR ligands)], BF4T system [bronchial epithelial cells and HDFn + (TNFα and IL-4)], BE3C system [bronchial epithelial cells + (IL-1β, TNFα and IFNy)], CASM3C system [coronary artery smooth muscle cells + (IL-1 β, TNFα and IFNy)], HDF3CGF system [HDFn + (IL-1β, TNFα, IFNy, EGF, bFGF and PDGF-BB)], KF3CT system [keratinocytes and HDFn + (IL-1β, TNFα, IFNy and TGFβ)], MyoF system [differentiated lung myofibroblasts + (TNFα and TGFβ)] and Mphg system [HUVEC and M1 macrophages + Zymosan (TLR2 ligand)].
(§2) Systems are derived from either single cell types or co-culture systems. Adherent cell types are cultured in 96 or 384-well plates until confluence, followed by the addition of PBMC (SAg and LPS systems). […] Soluble factors from supernatants are quantified using either HTRF® detection, bead-based multiplex immunoassay or capture ELISA. Overt adverse effects of test agents on cell proliferation and viability (cytotoxicity) are detected by sulforhodamine B (SRB) staining, for adherent cells, and alamarBlue® reduction for cells in suspension. […]

Experiment [3] concerns CD19+ B cells and PBMC + (α-IgM and TCR ligands). Put plainly: BioMAP BT system. Format: cell-based, human. To be noted: annotated relative to vehicle controls.
Text: as §1, §2

The test system of experiment [4] is bronchial epithelial cells and HDFn + (TNFα and IL-4). Put plainly: BioMAP BF4T system. It counts as cell-based, human. The following applies: annotated relative to vehicle controls.
Text: as §1, §2

Experiment [5] concerns keratinocytes and HDFn + (IL-1β, TNFα, IFNy and TGFβ). As to the kind of experiment: BioMAP KF3CT system. It counts as cell-based, human. To be noted: annotated relative to vehicle controls.
Text: as §1, §2

The subject of experiment [6] is differentiated lung myofibroblasts + (TNFα and TGFβ). As to the kind of experiment: BioMAP MyoF system. Format: cell-based, human. The following applies: annotated relative to vehicle controls.
Text: as §1, §2

As to sodium salt of dextran sulfate [LMW-DS], the “time of maximum peak of plasma HGF after LMW-DS administration” value in experiment [1] was “about 2 hr”. In addition, the Increased biomarker activity entry is listed as “uPAR” in experiment [2]; “sIL-17A” in experiment [3]; “Eot3” in experiment [4]; “IL-8” in experiment [5]; “IL-8” in experiment [6]. Moreover, the Decreased biomarker activity entry in experiment [3] is on record as “sIgG, sIL-17F”; in experiment [5], “MCP-1”.
